What all share (test): Apoptosis by Annexin-V-Fluos staining and flow cytometry
For orientation: A flow cytometer gives signals particle by particle.

The test system of one experiment is MDA-MB-231 cells. As to conditions: MDA-MB-231, 10 μM, 72 hours.
The next experiment has as its system H3255 cells. To be noted: H3255, 10 μM, 72 hours.
The next experiment concerns H441 cells. To be noted: H441, 10 μM, 72 hours.

The structures appear in SMILES notation.

Description for H3255 cells: (§1) In vitro Analysis of Apoptosis. […] The cells were washed in PBS. Cell suspension was then stained with Annexin-V-Fluos (Roche Diagnostics, Mannheim, Germany) for 30 minutes before labeled cells were quantitated by flow cytometry (EpicsXL; Beckman Coulter, MarmiMiami, Fla., USA).
Description for H441 cells: as §1
Description for MDA-MB-231 cells: as §1

For the compound `COc1cc2ncnc(Nc3ccc(F)c(Cl)c3)c2cc1OCCCN1CCOCC1` [gefitinib], the “apoptosis percentage after deducting DMSO control” value amounted to 6.92% in the experiment with MDA-MB-231 cells, 25.86% with H3255 cells and 8.13% in the experiment on H441 cells.
